Laboratory results taken from patent US10519147B2 (Merck Sharp & Dohme Corp., priority 2015, dated 2019).

Assays:
human Nav1.7 = biological target: T1, human Nav1.7 (Homo sapiens, UniProt Q15858); assay: IonWorks Quattro automated patch-clamp, inactivated state block of Nav1.7; assay type: cell-based; conditions: channels stably expressed in HEK 293 cells; double-pulse protocol, inactivated state block; read-out: potency for the Nav 1.7 sodium ion channel (IC50, as measured by IonWorks)
T1 construct: expressed in transfected cells; host or cells: HEK 293
Method in brief: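 HEK293 stable lines, IonWorks PPC patch clamp (nystatin/amphotericin access); double-pulse protocol giving ~50% inactivation: holding −100 mV (Nav1.7) or −110 mV (Nav1.5), 1000 ms prepulse to −10 or −30 mV, 10 ms repolarization, 10 ms test pulse. Peak current inhibition versus concentration fitted to Hill equation for IC50.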

human Nav1.5 = biological target: T2, human Nav1.5 (Homo sapiens, UniProt Q14524); assay: IonWorks Quattro automated patch-clamp, Nav1.5 (selectivity against Nav1.7); assay type: cell-based; conditions: IonWorks measurement, HEK 293 cells, inactivated state block
T2 construct: expressed in transfected cells; host or cells: HEK 293
Experimental: Compounds were tested on human Nav1.7 and Nav1.5 channels stably expressed in HEK 293 cells. […] Cells were sealed on a planar substrate using the Population Patch […] (PPC) technology. Electrical access was obtained using both nystatin and amphotericin. A double-pulse protocol was used for the determination of IC50 values for inactivated state block. Nav1.7 and Nav1.5 expressing cells were voltage clamped at −100 mV and −110 mV, respectively. A depolarizing prepulse to −10 mV (Nav1.7) or −30 mV (Nav1.5) for 1000 ms followed by a 10 ms repolarization to −100 mV (Nav1.7) or −110 mV (Nav1.5) was given to generate fractional channel inactivation of 50%, followed by a 10 ms test pulse to −10 mV (Nav1.7) or −30 mV (Nav1.5) to measure peak current in control conditions and after compound addition. The following recording solutions were used (mM). External: 150 NaCl, 2 CaCl2, 5 KCl, 1 Mg Cl2, 10 HEPES, 12 Dextrose; internal: 120 CsF, 30 CsCl, 10 EGTA, 5 HEPES, 5 NaF, 2 MgCl2.
For all electrophysiology experiments, offline analysis was used to determine percent inhibition as a function of drug concentration. IC50 values were determined by fitting to the Hill equation.

T2 sequence (Q14524 whole entry): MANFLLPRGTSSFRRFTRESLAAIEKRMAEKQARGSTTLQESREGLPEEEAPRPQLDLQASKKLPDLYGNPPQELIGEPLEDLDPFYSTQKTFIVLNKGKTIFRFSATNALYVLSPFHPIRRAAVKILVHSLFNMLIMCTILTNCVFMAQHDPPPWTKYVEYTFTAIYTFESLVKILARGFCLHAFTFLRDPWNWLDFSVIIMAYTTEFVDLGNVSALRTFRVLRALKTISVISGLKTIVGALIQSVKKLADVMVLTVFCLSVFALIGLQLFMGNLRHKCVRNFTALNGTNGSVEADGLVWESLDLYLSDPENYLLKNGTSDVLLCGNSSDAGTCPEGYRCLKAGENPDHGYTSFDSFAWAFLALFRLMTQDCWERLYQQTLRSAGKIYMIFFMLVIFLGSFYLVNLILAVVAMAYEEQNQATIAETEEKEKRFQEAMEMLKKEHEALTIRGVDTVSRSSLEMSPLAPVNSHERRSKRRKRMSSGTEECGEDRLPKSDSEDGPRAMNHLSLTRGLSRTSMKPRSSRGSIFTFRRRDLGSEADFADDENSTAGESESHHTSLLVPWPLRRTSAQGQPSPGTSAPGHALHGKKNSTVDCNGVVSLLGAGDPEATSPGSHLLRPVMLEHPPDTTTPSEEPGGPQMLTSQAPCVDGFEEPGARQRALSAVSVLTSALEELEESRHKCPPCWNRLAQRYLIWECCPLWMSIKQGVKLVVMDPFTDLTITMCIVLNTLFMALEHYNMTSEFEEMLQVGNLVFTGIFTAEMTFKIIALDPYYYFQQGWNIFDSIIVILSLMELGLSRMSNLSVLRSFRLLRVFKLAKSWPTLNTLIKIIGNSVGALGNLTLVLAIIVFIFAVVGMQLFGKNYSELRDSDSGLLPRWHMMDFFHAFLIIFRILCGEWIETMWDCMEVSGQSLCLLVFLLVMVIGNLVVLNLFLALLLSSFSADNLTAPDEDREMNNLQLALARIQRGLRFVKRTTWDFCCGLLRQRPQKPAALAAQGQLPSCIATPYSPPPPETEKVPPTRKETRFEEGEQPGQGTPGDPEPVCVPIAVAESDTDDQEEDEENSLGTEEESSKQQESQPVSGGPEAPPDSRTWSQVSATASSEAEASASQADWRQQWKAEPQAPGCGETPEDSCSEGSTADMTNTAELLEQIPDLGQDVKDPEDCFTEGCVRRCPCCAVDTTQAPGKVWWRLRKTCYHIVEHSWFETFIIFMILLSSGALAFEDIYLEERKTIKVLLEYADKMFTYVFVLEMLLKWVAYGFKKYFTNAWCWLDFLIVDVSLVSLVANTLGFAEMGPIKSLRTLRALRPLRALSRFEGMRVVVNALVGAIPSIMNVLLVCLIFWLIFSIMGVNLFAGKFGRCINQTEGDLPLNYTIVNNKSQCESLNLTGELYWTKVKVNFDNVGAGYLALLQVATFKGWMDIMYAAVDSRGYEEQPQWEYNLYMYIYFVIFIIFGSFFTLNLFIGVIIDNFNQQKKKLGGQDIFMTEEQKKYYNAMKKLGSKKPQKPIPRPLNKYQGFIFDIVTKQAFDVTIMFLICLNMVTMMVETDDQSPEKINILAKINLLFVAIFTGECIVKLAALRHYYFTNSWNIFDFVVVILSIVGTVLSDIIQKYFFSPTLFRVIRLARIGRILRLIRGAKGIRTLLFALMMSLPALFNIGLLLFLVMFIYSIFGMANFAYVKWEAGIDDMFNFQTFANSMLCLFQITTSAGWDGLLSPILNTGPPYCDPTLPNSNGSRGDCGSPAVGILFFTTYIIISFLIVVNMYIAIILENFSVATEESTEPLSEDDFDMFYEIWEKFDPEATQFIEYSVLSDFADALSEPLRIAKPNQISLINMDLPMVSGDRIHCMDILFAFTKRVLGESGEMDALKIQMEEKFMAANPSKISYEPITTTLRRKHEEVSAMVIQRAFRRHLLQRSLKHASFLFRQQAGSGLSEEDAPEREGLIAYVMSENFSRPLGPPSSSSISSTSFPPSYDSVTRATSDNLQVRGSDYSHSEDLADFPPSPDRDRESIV
T1 sequence (Q15858 whole entry): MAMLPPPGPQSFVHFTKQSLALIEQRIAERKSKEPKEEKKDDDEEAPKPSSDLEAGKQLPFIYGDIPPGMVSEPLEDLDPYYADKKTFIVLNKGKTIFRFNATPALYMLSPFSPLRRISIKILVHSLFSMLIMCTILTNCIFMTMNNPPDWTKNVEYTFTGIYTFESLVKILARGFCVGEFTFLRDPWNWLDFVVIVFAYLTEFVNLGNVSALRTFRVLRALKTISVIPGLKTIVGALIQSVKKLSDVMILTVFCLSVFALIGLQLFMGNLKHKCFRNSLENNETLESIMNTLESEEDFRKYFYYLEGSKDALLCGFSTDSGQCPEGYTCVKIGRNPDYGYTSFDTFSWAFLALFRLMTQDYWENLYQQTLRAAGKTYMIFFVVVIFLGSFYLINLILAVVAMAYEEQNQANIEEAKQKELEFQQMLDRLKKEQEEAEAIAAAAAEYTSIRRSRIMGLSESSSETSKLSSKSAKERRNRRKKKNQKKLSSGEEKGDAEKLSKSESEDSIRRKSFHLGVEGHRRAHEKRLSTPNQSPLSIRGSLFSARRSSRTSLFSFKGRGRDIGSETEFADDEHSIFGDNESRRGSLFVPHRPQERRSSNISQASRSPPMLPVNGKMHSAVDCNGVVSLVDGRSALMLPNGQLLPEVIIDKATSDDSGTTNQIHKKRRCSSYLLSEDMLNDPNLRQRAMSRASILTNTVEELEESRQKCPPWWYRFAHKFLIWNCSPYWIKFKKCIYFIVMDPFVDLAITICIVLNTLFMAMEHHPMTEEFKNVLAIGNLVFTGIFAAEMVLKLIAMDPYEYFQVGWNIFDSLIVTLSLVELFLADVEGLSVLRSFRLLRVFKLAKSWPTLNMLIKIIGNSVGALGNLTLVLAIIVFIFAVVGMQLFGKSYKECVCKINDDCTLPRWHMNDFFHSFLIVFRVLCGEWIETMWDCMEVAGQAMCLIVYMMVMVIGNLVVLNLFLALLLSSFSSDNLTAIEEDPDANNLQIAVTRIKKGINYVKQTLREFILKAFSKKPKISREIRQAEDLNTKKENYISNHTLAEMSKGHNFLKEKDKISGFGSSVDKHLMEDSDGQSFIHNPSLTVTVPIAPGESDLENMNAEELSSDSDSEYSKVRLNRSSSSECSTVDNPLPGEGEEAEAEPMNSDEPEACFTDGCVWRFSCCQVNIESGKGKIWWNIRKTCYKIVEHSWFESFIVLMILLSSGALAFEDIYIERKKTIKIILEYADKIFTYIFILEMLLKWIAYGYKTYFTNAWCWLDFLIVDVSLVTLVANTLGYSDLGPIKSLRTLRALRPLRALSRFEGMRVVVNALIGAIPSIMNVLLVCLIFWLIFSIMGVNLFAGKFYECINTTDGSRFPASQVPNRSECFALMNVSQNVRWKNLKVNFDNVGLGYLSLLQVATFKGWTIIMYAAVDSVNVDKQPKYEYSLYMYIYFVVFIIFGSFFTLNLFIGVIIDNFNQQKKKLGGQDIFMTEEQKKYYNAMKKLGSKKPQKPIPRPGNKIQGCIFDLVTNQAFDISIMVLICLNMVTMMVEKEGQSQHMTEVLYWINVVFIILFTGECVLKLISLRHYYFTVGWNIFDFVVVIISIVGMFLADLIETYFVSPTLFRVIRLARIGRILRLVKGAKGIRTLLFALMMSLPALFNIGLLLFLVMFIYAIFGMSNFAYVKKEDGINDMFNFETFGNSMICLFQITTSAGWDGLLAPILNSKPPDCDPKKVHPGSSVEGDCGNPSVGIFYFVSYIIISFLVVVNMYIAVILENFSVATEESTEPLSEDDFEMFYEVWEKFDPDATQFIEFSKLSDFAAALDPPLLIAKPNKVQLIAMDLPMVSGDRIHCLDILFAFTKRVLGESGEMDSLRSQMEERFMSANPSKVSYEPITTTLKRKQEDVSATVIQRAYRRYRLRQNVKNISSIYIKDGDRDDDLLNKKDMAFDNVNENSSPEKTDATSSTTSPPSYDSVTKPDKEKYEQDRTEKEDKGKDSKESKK

SMILES: N[C@H]1CCC[C@@H]1NCCCCNc1cc(F)c(S(=O)(=O)Nc2ncns2)cc1Cl [Ex 16-70, 4-[(4-{[(1S,2S)-2-aminocyclopentyl]amino}butyl)amino]-5-chloro-2-fluoro-N-1,2,4-thiadiazol-5-ylbenzenesulfonamide]
- IC50 (human Nav1.7): 8.5 nM
- ratio of Nav 1.7 potency:Nav 1.5 potency (human Nav1.5): > 2710

SMILES: O=S(=O)(Nc1nccs1)c1cc(Cl)c(NCCCCNCC[C@H]2CCCN2)cc1F [Ex 16-14, 5-chloro-2-fluoro-4-{[4-({2-[(2R)-pyrrolidin-2-yl]ethyl}-amino)-butyl]-amino}-N-1,3-thiazol-2-yl-benzenesulfonamide]
- IC50 (human Nav1.7): 39 nM
- ratio of Nav 1.7 potency:Nav 1.5 potency (human Nav1.5): > 846

SMILES: C[C@@H](N)CCNCCCCNc1cc(F)c(S(=O)(=O)Nc2ncc(F)s2)cc1Cl [Ex 16-30, 4-[(4-{[(3R)-3-amino-butyl]amino}butyl)amino]-5-chloro-2-fluoro-N-(5-fluoro-1,3-thiazol-2-yl)benzene-sulfonamide]
- IC50 (human Nav1.7): 14 nM
- ratio of Nav 1.7 potency:Nav 1.5 potency (human Nav1.5): > 2357

SMILES: O=S(=O)(Nc1ncc(F)s1)c1cc(Cl)c(NCCCCNC[C@H]2CCCN2)cc1F [Ex 16-13, 5-chloro-2-fluoro-N-(5-fluoro-1,3-thiazol-2-yl)-4-[(4-{[(2R)-pyrrolidin-2-yl-methyl]amino}-butyl)-amino] benzenesulfonamide]
- IC50 (human Nav1.7): 12 nM
- ratio of Nav 1.7 potency:Nav 1.5 potency (human Nav1.5): 2538

SMILES: O=S(=O)(Nc1ncns1)c1cc(F)c(NCCCCNC[C@@H]2CCCN2)cc1F [Ex 7-7, 2,5-difluoro-4-[(4-{[(2S)-pyrrolidin-2-ylmethyl]amino}butyl)amino]-N-1,2,4-thiadiazol-5-ylbenzenesulfonamide]
- IC50 (human Nav1.7): 80 nM
- ratio of Nav 1.7 potency:Nav 1.5 potency (human Nav1.5): > 410

SMILES: O=S(=O)(Nc1ncc(F)s1)c1cc(Cl)c(NCCCCNCC[C@@H]2CCCN2)cc1F [Ex 16-24, 5-chloro-2-fluoro-N-(5-fluoro-1,3-thiazol-2-yl)-4-{[4-({2-[(2S)-pyrrolidin-2-yl]ethyl}amino)butyl]amino} benzenesulfonamide]
- IC50 (human Nav1.7): 21 nM
- ratio of Nav 1.7 potency:Nav 1.5 potency (human Nav1.5): > 1571

SMILES: CCNCCNCCCCNc1cc(F)c(S(=O)(=O)Nc2ncns2)cc1Br [Ex 16-92, 5-bromo-4-[4-[2-(ethylamino)ethylamino]butylamino]-2-fluoro-N-(1,2,4-thiadiazol-5-yl)benzenesulfonamide]
- IC50 (human Nav1.7): 3.4 nM
- ratio of Nav 1.7 potency:Nav 1.5 potency (human Nav1.5): > 9700

SMILES: O=S(=O)(Nc1nccs1)c1cc(Cl)c(NCCCCNC[C@H]2CCN2)cc1F [Ex 16-75, 4-[(4-{[(2R)-azetidin-2-ylmethyl]amino}butyl)amino]-5-chloro-2-fluoro-N-1,3-thiazol-2-ylbenzenesulfonamide]
- IC50 (human Nav1.7): 41 nM
- ratio of Nav 1.7 potency:Nav 1.5 potency (human Nav1.5): > 805

SMILES: NCCCNCCCCNc1cc(F)c(S(=O)(=O)Nc2ncns2)cc1Cl [Ex 16-32, 4-({4-[(3-aminopropyl)-amino]butyl}amino)-5-chloro-2-fluoro-N-1,2,4-thiadiazol-5-ylbenzene-sulfonamide]
- IC50 (human Nav1.7): 49 nM
- ratio of Nav 1.7 potency:Nav 1.5 potency (human Nav1.5): > 673

SMILES: O=S(=O)(Nc1nccs1)c1cc(Cl)c(NCCCCNC[C@@H]2CCCCN2)cc1F [Ex 1-04, 5-chloro-2-fluoro-4-[(4-{[(2S)-piperidin-2-ylmethyl]amino}butyl)amino]-N-1,3-thiazol-2-yl-benzenesulfonamide]
- IC50 (human Nav1.7): 9.6 nM
- ratio of Nav 1.7 potency:Nav 1.5 potency (human Nav1.5): > 3440
- ratio of Nav 1.7 potency:Nav 1.5 potency (human Nav1.5; listed as Ex1-04): 3440

SMILES: N[C@@H]1CCC[C@H]1NCCCCNc1cc(F)c(S(=O)(=O)Nc2ncc(F)s2)cc1Cl [Ex 16-05, 4-[(4-{[(1R,2R)-2-aminocyclopentyl]-amino}-butyl)-amino]-5-chloro-2-fluoro-N-(5-fluoro-1,3-thiazol-2-yl)-benzene-sulfonamide]
- IC50 (human Nav1.7): 5 nM
- ratio of Nav 1.7 potency:Nav 1.5 potency (human Nav1.5): 3400

SMILES: CC(C)C[C@@H](CNCCCCNc1cc(F)c(S(=O)(=O)Nc2ncc(F)s2)cc1Cl)[C@@H](C)N [Ex 16-84, 4-((4-(((S)-2-((R)-1-aminoethyl)-4-methylpentyl)-amino)butyl)amino)-5-chloro-2-fluoro-N-(5-fluorothiazol-2-yl)benzenesulfonamide]
- IC50 (human Nav1.7): 6.1 nM
- ratio of Nav 1.7 potency:Nav 1.5 potency (human Nav1.5): > 5400
